As usually defined, the IC50 is the point on the concentration scale where inhibition reaches its midpoint. Low readings indicate higher potency, high ones lower potency. The IC90 is the concentration at which the effect reaches the 90% level. As a reminder, the Cmax is the maximum level reached in the sampled fluid or tissue.

Series [1] addresses T1, E-selectin (Homo sapiens, UniProt P16581).
T1 construct: fused on or other part: Ig (immunoglobulin Fc) part fused on as a handle for immobilisation
T1 sequence (P16581 22-175 limits assumed): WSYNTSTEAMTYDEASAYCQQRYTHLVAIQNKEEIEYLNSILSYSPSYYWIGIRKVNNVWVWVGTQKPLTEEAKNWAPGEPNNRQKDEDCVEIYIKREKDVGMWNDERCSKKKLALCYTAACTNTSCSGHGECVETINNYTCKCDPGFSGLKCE
Kind of series: E-selectin competitive binding assay (sLe^a polyacrylamide conjugate). The procedure:
(§1) The inhibition assay to screen for and characterize glycomimetic antagonists of E-selectin is a competitive binding assay, which allows the determination of IC50 and IC90 values. An E-selectin/Ig chimera was immobilized in 96 well microtiter plates by incubation at 37° C. for 2 hours. To reduce nonspecific binding, bovine serum albumin was added to each well and incubated at room temperature for 2 hours. The plate was washed and serial dilutions of the test compounds were added to the wells in the presence of conjugates of biotinylated, sLe^a polyacrylamide with streptavidin/horseradish peroxidase and incubated for 2 hours at room temperature.
(§2) To determine the amount of sLe^a bound to immobilized E-selectin after washing, the peroxidase substrate, 3, 3′, 5, 5′ tetramethylbenzidine (TMB) was added. After 3 minutes, the enzyme reaction was stopped by the addition of H3PO4, and the absorbance of light at a wavelength of 450 nm was determined. The concentration of a compound of Formula (I), required to inhibit binding by 50% was determined and reported as the IC50. The concentration required to inhibit binding by 90% was determined and reported as the IC90.

Series [2] has as its target T2, E-selectin (Mus musculus, UniProt Q00690).
T2 construct: fused on or other part: Ig (immunoglobulin Fc) part fused on as a handle for immobilisation
T2 sequence (Q00690 22-175 limits assumed): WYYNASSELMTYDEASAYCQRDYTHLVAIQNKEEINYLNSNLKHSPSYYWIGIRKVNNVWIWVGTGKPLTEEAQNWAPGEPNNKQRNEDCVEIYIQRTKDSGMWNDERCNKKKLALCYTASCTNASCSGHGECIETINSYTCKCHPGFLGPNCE
The series is described as above. The procedure: as §1, §2

Another series concerns KG1 cells. Description: Static adhesion of KG1 cells to E-selectin coated plates. Format: cell-based, human. To be noted: added post-binding of 5-azacytidine treated KG1 cells. An excerpt: These findings indicate that hypomethylating agents, including 5-azacytidine, may increase the adhesion of leukemic blasts in the bone marrow and therefore hinder the intended anti-leukemic effect. This could explain a source of chemoresistance, and potential for relapse, in patients treated with hypomethylating agents.

Series [3] can be described thus: Pharmacokinetics of weight-based doses in AML subjects. In kind it is in vivo, human. Particulars: for AUC, Mean / AUC, Median: dose 13 to dose 15; for Cmax: human, plasma, intravenous. The procedure:
Three cohorts of 6-7 human subjects with acute myeloid leukemia (AML) each received a total of 15 infusions of 5, 10, or 20 mg/kg/dose over 8 days with a nominal infusion duration of 20 minutes. The first dose of a compound of Formula (I), was administered 24 hours±1 hour prior to the first dose of MEC (mitoxantrone, etoposide, and cytarabine) induction chemotherapy as a sentinel dose to evaluate the effect of the compound of Formula (I) alone, and then every 12 hours±1 hour on chemotherapy days, starting 2 hours prior to chemotherapy. […] MEC chemotherapy was administered on Days 2-6. Samples were obtained pre-dose, on Day 1, Day 3, Day 8, Day 9, and Day 10 (where Day 1 refers to the first day of dosing with a compound of Formula (I)).

The subject of series [4] is acute myeloid leukemia (AML). Description: Clinical outcomes, newly diagnosed older AML subjects, sodium salt infusion with 7+3. To be noted: newly diagnosed AML ≥60 y. In kind it is in vivo, human. The procedure: In this study, 25 human subjects who were newly diagnosed at age 60 or older with acute myeloid leukemia (AML) were selected for this study. Subjects were not disqualified for prior treatment or diagnosis for MDS or CMML.
Each subject received a total of 19 infusions of 10 mg/kg/dose of the compound of Formula (I), administered as the sodium salt, over 10 days with a nominal infusion duration of 20 minutes. The formulation for the infusion solution was as follows: […]
The first dose of a compound of Formula (I) was administered 24 hours±1 hour prior to the first dose of 7+3 (cytarabine and idarubicin) chemotherapy as a sentinel dose to evaluate the effect of the compound of Formula (I) alone (i.e., a single dose of 10 mg/kg the day before the first chemotherapy day). The compound of Formula (I) was then administered every 12 hours±1 hour on chemotherapy days (i.e., 20 mg/kg per day on chemotherapy days) and for two days following the last dose of chemotherapy. […] 7+3 (cytarabine and idarubicin) chemotherapy was administered on Days 2-8 comprising a continuous IV infusion of cytarabine 100 mg/m^2/d over seven days (168 hours, from days 2-8), and idarubicin 12 mg/m^2/d IV for the first three consecutive days ([…], from days 2-4).
The clinical outcome for each subject was assessed at the time of count recovery following completion of induction chemotherapy. Subjects were assigned to one of four response groups: complete remission (“CR”); complete remission with incomplete count recovery (“CRi”); morphologic leukemia-free state (“MLFS”); persistent disease (“PD”). Complete remission was defined as bone marrow blasts <5%; absence of circulating blasts and blasts with Auer rods; absence of extramedullary disease; ANC ≥1.0×10^9/L and platelets ≥100,000×10^9/L. Complete remission with incomplete recovery was defined as: all CR criteria except for residual neutropenia (<1.0×10^9/L) or thrombocytopenia (<100,000×10^9/L). Morphologic leukemia-free state was defined as: bone marrow blasts <5%; absence of blasts with Auer rods; absence of extramedullary disease; no hematologic recovery required. Persistent disease was defined as: bone marrow blasts >5%.

Molecules are shown by their SMILES. Where “and” joins values, the source holds several entries; their conditions need not be identical. Equal values may be shown once. Read-outs that look alike come from different tables or passages of the source.

As to `CC[C@@H]1CC(C(=O)NCCNC(=O)CCOCCOCCOCCOCCOCCOCCOCCOCCOCCOCCOCCOC)C[C@@H](O[C@@H]2O[C@@H](CO)[C@H](O)C(O[C@@H](CC3CCCCC3)C(=O)O)C2NC(C)=O)C1OC1O[C@@H](C)C(O)[C@H](O)[C@@H]1O` (stereo partly drawn) [compound of Formula (I)], the IC50 is 2.44 µM and 2.4 µM at E-selectin [1]; 2.45 µM and 2.49 µM at E-selectin [2]. Besides, the IC90 at E-selectin [1] is 7535 ng/mL; on E-selectin [1] (read-out: IC90), 7.54 µg/mL and 5.68 µM; at E-selectin [2] it was 3.7 µM and 4.91 µg/mL. Further, the uncoupling of adhesion with KG1 cells was ~90%. Moreover, the “AUC, Mean” value in series [3] (5 mg/kg/dose) was found to be 5.21 µg·days/mL; in series [3] (10 mg/kg/dose) it was 9.63 µg·days/mL; in series [3] (20 mg/kg/dose), 20.43 µg·days/mL. Moreover, the “AUC, Median” value was determined as 4.83 µg·days/mL in series [3] (5 mg/kg/dose), 9.63 µg·days/mL in series [3] (10 mg/kg/dose) and 19.33 µg·days/mL in series [3] (20 mg/kg/dose). Also, the Cmax in series [3] (5 mg/kg, 5 mg/kg/dose, read-out: Cmax, Mean) was found to be 38.5 µg/mL; in series [3] (5 mg/kg, 5 mg/kg/dose, read-out: Cmax, Median), 36.3 µg/mL; in series [3] (10 mg/kg, 10 mg/kg/dose, read-out: Cmax, Mean), 79.6 µg/mL; in series [3] (10 mg/kg, 10 mg/kg/dose, read-out: Cmax, Median), 76.2 µg/mL; in series [3] (20 mg/kg, 20 mg/kg/dose, read-out: Cmax, Mean) it was 167 µg/mL; in series [3] (20 mg/kg, 20 mg/kg/dose, read-out: Cmax, Median), 153 µg/mL. Besides, in series [4], the “one-year overall survival rate, all subjects” value is recorded as 52%. For the same compound, the “one-year survival rate, MRD negative subjects” value in series [4] came to 60%. The “severe oral mucositis rate” value in series [4] was 0%. Moreover, in series [4] (95% CI 3-12.6), the median event-free survival was 9.2 months. Also, the median overall survival in series [4] (95% CI lower 9.9) is listed as 12.6 months. In series [4] (N = 25), the “Oral Mucositis Events Grades 3/4” value amounted to 0 n.

Values taken from patent US11707474B2, “Methods for treating acute myeloid leukemia and related conditions” (GlycoMimetics, Inc., priority 2018, dated 2023).
